Laboratory results reported in patent publication US12611425B2, “Compositions and methods for treatment and prevention of pathogens” (WIAB WATER INNOVATION AB, priority 2022, dated 2026).
Where two headings read alike, the source gives them in different places.

Tests used:
S. aureus biofilms = test: In vitro anti-biofilm effect, viable CFU counting; format: cell-based, Staphylococcus aureus; conditions: 1% glutaric acid alone
Protocol: Test organisms: Pseudomonas aeruginosa or Staphylococcus aureus wild-type strains Biofilm type: 48 hours- or 24 hours-old biofilms grown on semipermeable membranes placed on solidified medium supplemented with 0.5% glucose. In the case of 48 h-old biofilms, the membranes with biofilms were transferred onto fresh plates after 24 h.
Initial viable cell amount: 5×10^9 colony forming units (CFUs)
Treatment method: Membranes with biofilms were transferred to new plates. Eight-10 layers of sterile gauze were placed on the second membrane, and 1 ml of antimicrobial solution was pipetted on the gauze layers. The treatment was carried out at room temperature for 2-to-3 h, or 4-to-6 h. In the case of the 4-to-6 h treatments, the gauze layers were replaced with fresh gauze layers with 1 ml sample solution 2 or 3 h after the treatments had been initiated.
Evaluation method: The gauze layers were discarded, and each membrane with biofilms was transferred into a 15 ml tube containing 5 ml 0.9% NaCl, vortexed for 10 sec., sonicated in an ultrasound bath for 10 min, and vortexed again for 10 sec. Ten-fold serial dilutions were made, and 10 ul of each dilution was spot-plated on LB plates for viable CFU counting.

[1] = cited from earlier work
human rhinovirus (HRV) = conditions: low concentration nasal irrigation solution, in vitro, nasal epithelial cells; cited from earlier work
avian influenza virus = conditions: similar formulations, in vitro; cited from earlier work
[2] = cited from earlier work; remark: listed apart in the source
[3] = system: bacterial log CFU/g ground chicken ground meat; conditions: separately or in a mixture; cited from earlier work
[4] = Dissolving time of powdered calcium hypochlorite in acetic acid/acetate buffer; format: physicochemical; conditions: 2500 rpm
Protocol: • I. 58±4 mg of all sizes of the powdered material was, respectively, dissolved in 100 mL 0.25% wt. acetic acid/acetate buffer. Particle size ≤250 μm dissolved within 10 seconds, ≤355 μm within 15 seconds and ≤500 μm within one minute and 25 seconds at 2500 rpm. • II. 58±4 mg of all sizes of the powdered material was, respectively, dissolved in 100 mL 3.0% wt. acetic acid/acetate buffer. Particle size ≤250 μm dissolved within 10 seconds, ≤355 μm within 25 seconds and ≤500 μm within 25 seconds at 2500 rpm. • III. 570±40 mg of all sizes of the powdered material was, respectively, dissolved in 100 mL 0.25% wt. acetic acid/acetate buffer. Particle size ≤250 μm dissolved within 15 seconds, ≤355 μm within 45 seconds and ≤500 μm within one minute and 35 seconds at 2500 rpm. • IV. 570±40 mg of all sizes of the powdered material was, respectively, dissolved in 100 mL 3.0% wt. acetic acid/acetate buffer. Repeated with 3.0% acetic acid/acetate buffer. Particle size ≤250 μm dissolved within 15 seconds, ≤355 μm within 15 seconds and ≤500 μm within 20 seconds at 2500 rpm.

[5] = Powder flow determination (funnel flow, angle of repose); format: physicochemical; conditions: for flowability: 100 g, funnel outflow opening 15 mm
Protocol: 100 g of powdered calcium hypochlorite of sizes ≤355 μm and ≤500 μm was added, respectively, into a dry funnel (Ø110 mm, diameter of the outflow opening=15 mm), whose bottom opening has been blocked by a plastic cover. The bottom opening of the funnel was unblocked to measure the time needed for the entire sample to flow out. The flowability of particle sizes ≤355 μm and ≤500 μm is, respectively, 35.7 g/s and 37.4 g/s. The angle of repose was calculated as 29.5° and 26.8° for particle sizes 355 μm and ≤500 μm, respectively.

With O=C(O)CCCC(=O)O [glutaric acid] the “effect on the biofilm” value (S. aureus biofilms) was “only minor effect”.

In the case of OCl [hypochlorous acid], the pKa [1] is given as “about 7”, the virus-killing effect (human rhinovirus (HRV)) is given as “significant virus-killing effect” and the “effects against avian influenza virus” value (avian influenza virus) is given as “good effects”. The standard reduction potential ([2]; basic pH) was “+0.89” and the standard reduction potential ([2]; low pH) was “+1.49”.

For O=C([O-])CCC(=O)O.[Na+] [monosodium succinate], the “reduction of bacterial log CFU/g” value [3] is given as about 2 log.

For [Ca+2].[O-]Cl.[O-]Cl [powdered calcium hypochlorite, calcium hypochlorite], the dissolving time ([4]; I: 58±4 mg in 100 mL 0.25% wt. acetic acid/acetate buffer, particle size ≤250 μm) was at most 10 s, the dissolving time ([4]; I: 58±4 mg in 100 mL 0.25% wt. buffer, particle size ≤355 μm) was at most 15 s and the dissolving time ([4]; II: 58±4 mg in 100 mL 3.0% wt. acetic acid/acetate buffer, particle size ≤250 μm) was at most 10 s. The dissolving time ([4]; II: 58±4 mg in 100 mL 3.0% wt. buffer, particle size ≤355 μm) was at most 25 s, the dissolving time ([4]; II: 58±4 mg in 100 mL 3.0% wt. buffer, particle size ≤500 μm) was at most 25 s and the dissolving time ([4]; III: 570±40 mg in 100 mL 0.25% wt. acetic acid/acetate buffer, particle size ≤250 μm) was at most 15 s. The dissolving time ([4]; III: 570±40 mg in 100 mL 0.25% wt. buffer, particle size ≤355 μm) was at most 45 s, the dissolving time ([4]; IV: 570±40 mg in 100 mL 3.0% wt. acetic acid/acetate buffer, particle size ≤250 μm) was at most 15 s and the dissolving time ([4]; IV: 570±40 mg in 100 mL 3.0% wt. buffer, particle size ≤355 μm) was at most 15 s. For the same compound, the dissolving time ([4]; IV: 570±40 mg in 100 mL 3.0% wt. buffer, particle size ≤500 μm) was at most 20 s, the angle of repose ([5]; particle size 355 μm) was 29.5 ° and the flowability ([5]; particle size ≤355 μm) was 35.7 g/s. For the same compound, the angle of repose ([5]; particle size ≤500 μm) was 26.8 ° and the flowability ([5]; particle size ≤500 μm) was 37.4 g/s.

In the case of CC(=O)C(=O)O [pyruvic acid], the “reduction of bacterial log CFU/g” value [3] is given as about 2 log.
